“Also recorded” adds a separate entry of the source. Read-outs that look alike come from different tables or passages of the source.
Key:
HEK293T cells = assay: HEK293T cell cytotoxicity (Zombie NIR flow cytometry); conditions: read-out: CC50 (95% CI), 293T cells; HEK293T cells; KSHV line
Raji cells = assay: Raji cell cytotoxicity (Zombie NIR flow cytometry); conditions: read-out: CC50 (95% CI), Raji cells; EBV line
HSV-2 [1] = assay: HSV-2 inhibition under four treatment conditions (cell pretreatment, virus pretreatment, cotreatment, post-treatment); format: cell-based
SARS-CoV-2 Alpha = format: in vivo, Syrian hamster
TZM-bl cells = assay: TZM-bl cell cytotoxicity (WST-1); conditions: read-out: CC50 (95% CI), TZM-bl cells; HIV-1 line
HSV-2 [2] = assay: HSV-2 DNA release (DNA exposure) assay with DNase; conditions: 43.2 and 86.5 μM
Procedure: To determine whether the virucidal effect is caused by the damage to the viral particles, we performed DNA release assays. Briefly, we incubated HSV-2 and B6C11S mixtures with DNase or buffer, inactivated the DNase, and then quantified the DNA amounts in the two samples (Figure 2c).

MDCK cells = conditions: read-out: CC50 (95% CI), MDCK cells
Vero cells = assay: Vero cell cytotoxicity (MTS assay); format: cell-based; conditions: 24 h, read-out: CC50 (95% CI), Vero cells

O=S(=O)(O)OCCCCCCCCCCCSCc1c(CSCCCCCCCCCCCOS(=O)(=O)O)c(CSCCCCCCCCCCCOS(=O)(=O)O)c(CSCCCCCCCCCCCOS(=O)(=O)O)c(CSCCCCCCCCCCCOS(=O)(=O)O)c1CSCCCCCCCCCCCOS(=O)(=O)O [B6C11S]
CC50 (HEK293T cells): > 162 µM | CC50 (Raji cells): > 162 µM | HSV-2 inhibition, cell pretreatment (HSV-2 [1]; condition (i) cell pretreatment, 21.6 μM): no inhibition | decrease of percentage of infected cells (HSV-2 [1]; condition (ii) virus pretreatment, 5.4 μM): over 85% | decrease of percentage of infected cells (HSV-2 [1]; condition (iii) cotreatment, 5.4 μM): over 85% | decrease of percentage of infected cells (HSV-2 [1]; condition (iv) post-treatment, 21.6 μM): 85% | body weight change of infected hamsters (SARS-CoV-2 Alpha; […], vs untreated group): no significant change | body weight change of infected hamsters (SARS-CoV-2 Alpha; hamster, in vivo): decreased the body weight change | histopathological evaluation of lung tissues (SARS-CoV-2 Alpha; hamster, in vivo): improved pulmonary conditions | infectious viral titer (TCID50) in the lungs vs untreated (SARS-CoV-2 Alpha; hamster, in vivo): significantly decreased the viral titer; also recorded: significant reduction in the infectious viral load | severe lung damage (histopathology categories E and F) (SARS-CoV-2 Alpha; hamster, in vivo): reducing severe lung damage | viral RNA copies in lung vs untreated (SARS-CoV-2 Alpha; hamster, in vivo): significantly decreased viral RNA copies | viral RNA levels in oral swab vs untreated (SARS-CoV-2 Alpha; hamster, in vivo): significantly lower viral RNA levels | viral titers (viral RNA) in swab samples and lung tissues vs untreated (SARS-CoV-2 Alpha; hamster, in vivo): did not find any notable differences; also recorded: No statistical difference | CC50 (TZM-bl cells): > 54 µM | release of viral DNA (HSV-2) (HSV-2 [2]): induced the release of viral DNA | CC50 (MDCK cells): > 5.4 µM | CC50 (Vero E6 cells; read-out: CC50 (95% CI), Vero E6 cells, SARS-CoV-2 (Alpha) line): 17.5 µM | CC50 (Vero E6 cells; read-out: CC50 (95% CI), Vero E6 cells, value repeated in the SARS-CoV-2 (Omicron) line): 17.5 µM | CC50 (Vero cells): 200 µM

— publication PMC11117723, “Benzene with Alkyl Chains Is a Universal Scaffold for Multivalent Virucidal Antivirals” (ACS Central Science, 2024)
